Data set [1] concerns Leishmania donovani. As to the kind of experiment: Antileishmanial activity against promastigote forms of Leishmania donovani MHOM/ET/1967/HU3 assessed as reduction in cell viability after 72 hrs by MTT assay. It counts as functional, organism-based. The note with it: MHOM/ET/1967/HU3, 72 h. For orientation: Tetrazolium dyes change colour on reduction, which living cells bring about.

In data set [2] the test system is Leishmania donovani. Nature of the data set: Potency index, ratio of Amphotericin B IC50 to compound IC50 for promastigote forms of Leishmania donovani MHOM/ET/1967/HU3. It counts as functional.
Data set [3] can be described thus: Hemolytic activity in human red blood cells. It counts as cell-based, Erythrocyte. The note with it: red blood cells (erythrocytes).
Data set [4] in a line: Selectivity index, ratio of HC50 for human red blood cells to IC50 for promastigote forms of Leishmania donovani MHOM/ET/1967/HU3. It counts as toxicity. As to conditions: read-out: Selectivity Index.

A value given as a limit tells only on which side of the number the result lay.

Take `C=C(C(=O)OCCOC(=O)C(=C)C(O)c1ccc(Br)cc1)C(O)c1ccc(Br)cc1` (centres undefined): the IC50 with Leishmania donovani [1] came to 0.5 µM. Also, in the data set on Leishmania donovani [2], the “Ratio IC50” value stood at 1.24. This compound also returned an HC50 in data set [3] greater than 200 µM. For the same compound, the selectivity ratio in data set [4] is greater than 400.
Regarding `C=C(C(=O)OC)C(O)c1cccc([N+](=O)[O-])c1` (centres undefined), the IC50 with Leishmania donovani [1] came out at 161 µM.
Regarding `C[C@@H]1[C@H](O)[C@@H](C)/C=C/C=C/C=C/C=C/C=C/C=C/C=C/[C@H](O[C@@H]2O[C@H](C)[C@@H](O)[C@H](N)[C@@H]2O)C[C@@H]2O[C@](O)(C[C@@H](O)C[C@@H](O)[C@H](O)CC[C@@H](O)C[C@@H](O)CC(=O)O[C@H]1C)C[C@H](O)[C@H]2C(=O)O` [AMPHOTERICIN B], the IC50 in the data set on Leishmania donovani [1] turned out to be 0.62 µM. The compound further returned an HC50 in data set [3] of 11.6 µM. In data set [4], the selectivity ratio came out at 18.7.
The like results for `C=C(C(=O)OCCOC(=O)C(=C)C(O)c1ccc(Cl)cc1)C(O)c1ccc(Cl)cc1` (centres undefined) were, in that order, 10.5 µM, greater than 200 µM and greater than 19.1.
In the case of `C=C(C(=O)OC)C(O)c1ccc(F)cc1` (centres undefined), the IC50 with Leishmania donovani [1] came out at 610 µM.
On to `C=C(C(=O)OCCOC(=O)C(=C)C(O)c1ccc([N+](=O)[O-])cc1)C(O)c1ccc([N+](=O)[O-])cc1` (centres undefined), for which the IC50 in the data set on Leishmania donovani [1] worked out at 44.6 µM.
The same measure, in the same setting: the same measure for `C=C(C(=O)OC)C(O)c1ccc([N+](=O)[O-])cc1` (centres undefined): 165 µM.
On the same count and under the same terms, the same measure for `C=C(C(=O)OCCOC(=O)C(=C)C(O)c1ccccc1)C(O)c1ccccc1` (centres undefined): 126 µM.
Turning to `C=C(C(=O)OCCOC(=O)C(=C)C(O)c1ccc2ccccc2c1)C(O)c1ccc2ccccc2c1` (centres undefined), the IC50 in the data set with Leishmania donovani [1] came to 39 µM.
Still for that read-out and setting: the same measure for `C=C(C(=O)OC)C(O)c1ccccc1` (centres undefined): 953 µM.
Still for that read-out and setting: the same measure for `C=C(C(=O)OCCOC(=O)C(=C)C(O)c1ccc(F)cc1)C(O)c1ccc(F)cc1` (centres undefined): 42.4 µM.
`C=C(C(=O)OC)C(O)c1ccc(Cl)cc1` (centres undefined): the IC50 in the data set with Leishmania donovani [1] stood at 202 µM.
Same read-out and setting: next, `C=C(C(=O)OC)C(O)c1ccccc1[N+](=O)[O-]` (centres undefined): 690 µM.
The same measure, in the same setting: next, `C=C(C(=O)OCCOC(=O)C(=C)C(O)c1cccc([N+](=O)[O-])c1)C(O)c1cccc([N+](=O)[O-])c1` (centres undefined): 43 µM; `C=C(C(=O)OC)C(O)c1ccc(Br)cc1` (centres undefined): 197 µM; `C=C(C(=O)OCCOC(=O)C(=C)C(O)c1ccccc1[N+](=O)[O-])C(O)c1ccccc1[N+](=O)[O-]` (centres undefined): 24.8 µM.
Same read-out and setting: the same measure for `C=C(C(=O)OC)C(O)c1ccc2ccccc2c1` (centres undefined): 185 µM.

As usually defined, the IC50 is the midpoint of a concentration-inhibition curve. Usually HC50 stands for the concentration giving 50% haemolysis.
